In brackets after ≈: the same amount, converted by molar mass.
Each compound was assayed on Staphylococcus aureus (assay: Antibacterial activity against Staphylococcus aureus assessed as reduction in bacterial count at 6 times MIC incubated for 24 hrs by time kill assay). Conditions: not given.
Format: functional

SMILES	log(activity)
C=C[C@]1(C)C[C@@H](OC(=O)CSc2ncnc(NCCN(C)C)n2)[C@]2(C)[C@H](C)CC[C@]3(CCC(=O)[C@H]32)[C@@H](C)[C@@H]1O	2.14

What follows are compounds tested on Staphylococcus epidermidis (assay: Antibacterial activity against methicillin-resistant Staphylococcus epidermidis ATCC 51625 assessed as bacterial growth inhibition incubated for 18 to 24 hrs by NCCLS based assay). Conditions: time 18-24 hrs.
Format: functional

SMILES	MIC [µg/mL]
C=C[C@]1(C)C[C@@H](OC(=O)CSc2ncnc(N3CCN(C)CC3)n2)[C@]2(C)[C@H](C)CC[C@]3(CCC(=O)[C@H]32)[C@@H](C)[C@@H]1O	0.125 (≈ 0.219 µM)
C=C[C@]1(C)C[C@@H](OC(=O)CSc2ncnc(OCC)n2)[C@]2(C)[C@H](C)CC[C@]3(CCC(=O)[C@H]32)[C@@H](C)[C@@H]1O	0.25 (≈ 0.483 µM)
C=C[C@]1(C)C[C@@H](OC(=O)CSc2ncnc(NCCN3CCOCC3)n2)[C@]2(C)[C@H](C)CC[C@]3(CCC(=O)[C@H]32)[C@@H](C)[C@@H]1O	0.25 (≈ 0.415 µM)
C=C[C@]1(C)C[C@@H](OC(=O)CSc2ncnc(NC)n2)[C@]2(C)[C@H](C)CC[C@]3(CCC(=O)[C@H]32)[C@@H](C)[C@@H]1O	0.5 (≈ 0.995 µM)
C=C[C@]1(C)C[C@@H](OC(=O)CSc2ncnc(NCCN(C)C)n2)[C@]2(C)[C@H](C)CC[C@]3(CCC(=O)[C@H]32)[C@@H](C)[C@@H]1O	0.125 (≈ 0.223 µM)

The compounds below were run on Staphylococcus aureus (assay: Antibacterial activity against methicillin-resistant Staphylococcus aureus ATCC 29213 assessed as reduction in bacterial count at 6 times MIC incubated for 24 hrs by time kill assay). Conditions: not given.
Format: functional

SMILES	log(activity)
C=C[C@]1(C)C[C@@H](OC(=O)CSc2ncnc(NCCN(C)C)n2)[C@]2(C)[C@H](C)CC[C@]3(CCC(=O)[C@H]32)[C@@H](C)[C@@H]1O	0.32

The compounds below were run on Staphylococcus aureus (assay: Bactericidal activity against Staphylococcus aureus incubated for 24 hrs by time kill assay). Conditions: not given.
Format: functional, organism-based

SMILES	Activity
C=C[C@]1(C)C[C@@H](OC(=O)CSc2ncnc(NCCN(C)C)n2)[C@]2(C)[C@H](C)CC[C@]3(CCC(=O)[C@H]32)[C@@H](C)[C@@H]1O	Dose-Dependent Effect

The compounds below were run on Streptococcus agalactiae (assay: Antibacterial activity against Streptococcus agalactiae assessed as bacterial growth inhibition incubated for 18 to 24 hrs by NCCLS based assay). Conditions: time 18-24 hrs.
Format: functional

SMILES	MIC [µg/mL]
C=C[C@]1(C)C[C@@H](OC(=O)CSc2ncnc(N3CCN(C)CC3)n2)[C@]2(C)[C@H](C)CC[C@]3(CCC(=O)[C@H]32)[C@@H](C)[C@@H]1O	4 (≈ 7 µM)
C=C[C@]1(C)C[C@@H](OC(=O)CSc2ncnc(OCC)n2)[C@]2(C)[C@H](C)CC[C@]3(CCC(=O)[C@H]32)[C@@H](C)[C@@H]1O	0.25 (≈ 0.483 µM)
C=C[C@]1(C)C[C@@H](OC(=O)CSc2ncnc(NCCN3CCOCC3)n2)[C@]2(C)[C@H](C)CC[C@]3(CCC(=O)[C@H]32)[C@@H](C)[C@@H]1O	0.125 (≈ 0.208 µM)
C=C[C@]1(C)C[C@@H](OC(=O)CSc2ncnc(NC)n2)[C@]2(C)[C@H](C)CC[C@]3(CCC(=O)[C@H]32)[C@@H](C)[C@@H]1O	0.125 (≈ 0.249 µM)
C=C[C@]1(C)C[C@@H](OC(=O)CSc2ncnc(NCCN(C)C)n2)[C@]2(C)[C@H](C)CC[C@]3(CCC(=O)[C@H]32)[C@@H](C)[C@@H]1O	0.063 (≈ 0.113 µM)

The compounds below were run on Staphylococcus aureus (assay: Antibacterial activity against Staphylococcus aureus ATCC 25923 assessed as bacterial growth inhibition incubated for 18 to 24 hrs by NCCLS based assay). Conditions: time 18-24 hrs.
Format: functional

SMILES	MIC [µg/mL]
C=C[C@]1(C)C[C@@H](OC(=O)CSc2ncnc(N3CCN(C)CC3)n2)[C@]2(C)[C@H](C)CC[C@]3(CCC(=O)[C@H]32)[C@@H](C)[C@@H]1O	0.125 (≈ 0.219 µM)
C=C[C@]1(C)C[C@@H](OC(=O)CSc2ncnc(OCC)n2)[C@]2(C)[C@H](C)CC[C@]3(CCC(=O)[C@H]32)[C@@H](C)[C@@H]1O	0.125 (≈ 0.241 µM)
C=C[C@]1(C)C[C@@H](OC(=O)CSc2ncnc(NCCN3CCOCC3)n2)[C@]2(C)[C@H](C)CC[C@]3(CCC(=O)[C@H]32)[C@@H](C)[C@@H]1O	0.063 (≈ 0.105 µM)
C=C[C@]1(C)C[C@@H](OC(=O)CSc2ncnc(NC)n2)[C@]2(C)[C@H](C)CC[C@]3(CCC(=O)[C@H]32)[C@@H](C)[C@@H]1O	0.125 (≈ 0.249 µM)
C=C[C@]1(C)C[C@@H](OC(=O)CSc2ncnc(NCCN(C)C)n2)[C@]2(C)[C@H](C)CC[C@]3(CCC(=O)[C@H]32)[C@@H](C)[C@@H]1O	0.031 (≈ 0.0554 µM)

What follows are compounds tested on Escherichia coli (assay: Antibacterial activity against Escherichia coli CICC 10389 assessed as bacterial growth inhibition incubated for 18 to 24 hrs by NCCLS based assay). Conditions: time 18-24 hrs.
Format: functional

SMILES	MIC [µg/mL]
C=C[C@]1(C)C[C@@H](OC(=O)CSc2ncnc(N3CCN(C)CC3)n2)[C@]2(C)[C@H](C)CC[C@]3(CCC(=O)[C@H]32)[C@@H](C)[C@@H]1O	≥ 64
C=C[C@]1(C)C[C@@H](OC(=O)CSc2ncnc(OCC)n2)[C@]2(C)[C@H](C)CC[C@]3(CCC(=O)[C@H]32)[C@@H](C)[C@@H]1O	≥ 64
C=C[C@]1(C)C[C@@H](OC(=O)CSc2ncnc(NCCN3CCOCC3)n2)[C@]2(C)[C@H](C)CC[C@]3(CCC(=O)[C@H]32)[C@@H](C)[C@@H]1O	≥ 64
C=C[C@]1(C)C[C@@H](OC(=O)CSc2ncnc(NC)n2)[C@]2(C)[C@H](C)CC[C@]3(CCC(=O)[C@H]32)[C@@H](C)[C@@H]1O	≥ 64
C=C[C@]1(C)C[C@@H](OC(=O)CSc2ncnc(NCCN(C)C)n2)[C@]2(C)[C@H](C)CC[C@]3(CCC(=O)[C@H]32)[C@@H](C)[C@@H]1O	≥ 64

What follows are compounds tested on Enterococcus faecalis (assay: Antibacterial activity against Enterococcus faecalis assessed as bacterial growth inhibition incubated for 18 to 24 hrs by NCCLS based assay). Conditions: time 18-24 hrs.
Format: functional

SMILES	MIC [µg/mL]
C=C[C@]1(C)C[C@@H](OC(=O)CSc2ncnc(N3CCN(C)CC3)n2)[C@]2(C)[C@H](C)CC[C@]3(CCC(=O)[C@H]32)[C@@H](C)[C@@H]1O	≥ 64
C=C[C@]1(C)C[C@@H](OC(=O)CSc2ncnc(OCC)n2)[C@]2(C)[C@H](C)CC[C@]3(CCC(=O)[C@H]32)[C@@H](C)[C@@H]1O	32 (≈ 61.8 µM)
C=C[C@]1(C)C[C@@H](OC(=O)CSc2ncnc(NCCN3CCOCC3)n2)[C@]2(C)[C@H](C)CC[C@]3(CCC(=O)[C@H]32)[C@@H](C)[C@@H]1O	32 (≈ 53.2 µM)
C=C[C@]1(C)C[C@@H](OC(=O)CSc2ncnc(NC)n2)[C@]2(C)[C@H](C)CC[C@]3(CCC(=O)[C@H]32)[C@@H](C)[C@@H]1O	32 (≈ 63.7 µM)
C=C[C@]1(C)C[C@@H](OC(=O)CSc2ncnc(NCCN(C)C)n2)[C@]2(C)[C@H](C)CC[C@]3(CCC(=O)[C@H]32)[C@@H](C)[C@@H]1O	16 (≈ 28.6 µM)

What follows are compounds tested on Staphylococcus aureus (assay: Bactericidal activity against methicillin-resistant Staphylococcus aureus ATCC 29213 incubated for 24 hrs by time kill assay). Conditions: not given.
Format: functional, organism-based

SMILES	Activity
C=C[C@]1(C)C[C@@H](OC(=O)CSc2ncnc(NCCN(C)C)n2)[C@]2(C)[C@H](C)CC[C@]3(CCC(=O)[C@H]32)[C@@H](C)[C@@H]1O	Dose-Dependent Effect

What follows are compounds tested on Pasteurella multocida (assay: Antibacterial activity against Pasteurella multocida CVCC 1659 assessed as bacterial growth inhibition incubated for 18 to 24 hrs by NCCLS based assay). Conditions: time 18-24 hrs.
Format: functional

SMILES	MIC [µg/mL]
C=C[C@]1(C)C[C@@H](OC(=O)CSc2ncnc(N3CCN(C)CC3)n2)[C@]2(C)[C@H](C)CC[C@]3(CCC(=O)[C@H]32)[C@@H](C)[C@@H]1O	≥ 64
C=C[C@]1(C)C[C@@H](OC(=O)CSc2ncnc(OCC)n2)[C@]2(C)[C@H](C)CC[C@]3(CCC(=O)[C@H]32)[C@@H](C)[C@@H]1O	≥ 64
C=C[C@]1(C)C[C@@H](OC(=O)CSc2ncnc(NCCN3CCOCC3)n2)[C@]2(C)[C@H](C)CC[C@]3(CCC(=O)[C@H]32)[C@@H](C)[C@@H]1O	≥ 64
C=C[C@]1(C)C[C@@H](OC(=O)CSc2ncnc(NC)n2)[C@]2(C)[C@H](C)CC[C@]3(CCC(=O)[C@H]32)[C@@H](C)[C@@H]1O	≥ 64
C=C[C@]1(C)C[C@@H](OC(=O)CSc2ncnc(NCCN(C)C)n2)[C@]2(C)[C@H](C)CC[C@]3(CCC(=O)[C@H]32)[C@@H](C)[C@@H]1O	≥ 64

Each compound was assayed on Staphylococcus aureus (assay: Antibacterial activity against methicillin-resistant Staphylococcus aureus BNCC 337371 assessed as bacterial growth inhibition incubated for 18 to 24 hrs by NCCLS based assay). Conditions: time 18-24 hrs.
Format: functional

SMILES	MIC [µg/mL]
C=C[C@]1(C)C[C@@H](OC(=O)CSc2ncnc(N3CCN(C)CC3)n2)[C@]2(C)[C@H](C)CC[C@]3(CCC(=O)[C@H]32)[C@@H](C)[C@@H]1O	0.125 (≈ 0.219 µM)
C=C[C@]1(C)C[C@@H](OC(=O)CSc2ncnc(OCC)n2)[C@]2(C)[C@H](C)CC[C@]3(CCC(=O)[C@H]32)[C@@H](C)[C@@H]1O	0.125 (≈ 0.241 µM)
C=C[C@]1(C)C[C@@H](OC(=O)CSc2ncnc(NCCN3CCOCC3)n2)[C@]2(C)[C@H](C)CC[C@]3(CCC(=O)[C@H]32)[C@@H](C)[C@@H]1O	0.125 (≈ 0.208 µM)
C=C[C@]1(C)C[C@@H](OC(=O)CSc2ncnc(NC)n2)[C@]2(C)[C@H](C)CC[C@]3(CCC(=O)[C@H]32)[C@@H](C)[C@@H]1O	0.25 (≈ 0.497 µM)
C=C[C@]1(C)C[C@@H](OC(=O)CSc2ncnc(NCCN(C)C)n2)[C@]2(C)[C@H](C)CC[C@]3(CCC(=O)[C@H]32)[C@@H](C)[C@@H]1O	0.063 (≈ 0.113 µM)

From ChEMBL document CHEMBL5634148, “Synthesis and evaluation of novel pleuromutilin derivatives targeting the 50S ribosomal subunit for antibacterial ability” (Eur J Med Chem, 2023)
